In patent US20250084063A1 (Incyte Corporation, priority 2023, published 2025):

Key:
Assay type in all cases: cell-based
MRGPRX2 [1] = biological target: T1, MRGPRX2 (Homo sapiens, UniProt Q96LB1); assay: MRGPRX2 FLIPR calcium mobilization assay; set-up: host or cells: CHO-K1; settings: CHO-K1 cells stably expressing human MRGPRX2; Ca2+ release, agonist Cortistatin-14 at EC80
T1 sequence (Q96LB1 1-330): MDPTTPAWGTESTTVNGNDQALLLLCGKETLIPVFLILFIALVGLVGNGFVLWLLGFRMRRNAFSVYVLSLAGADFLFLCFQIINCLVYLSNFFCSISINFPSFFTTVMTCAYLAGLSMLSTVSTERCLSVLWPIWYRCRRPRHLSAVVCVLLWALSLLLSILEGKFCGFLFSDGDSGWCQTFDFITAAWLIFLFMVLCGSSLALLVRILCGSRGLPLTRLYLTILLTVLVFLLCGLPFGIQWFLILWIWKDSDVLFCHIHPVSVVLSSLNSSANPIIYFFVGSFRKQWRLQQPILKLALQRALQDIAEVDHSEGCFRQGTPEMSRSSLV
Summary of the method: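 CHO-K1 cells stably expressing human MRGPRX2, loaded with Calcium 6 dye, pre-incubated 30 min at room temperature with test compound in HBSS/20 mM HEPES pH 7.4. Then challenged with Cortistatin-14 at EC80; baseline-adjusted peak fluorescence over 110 s fitted to a Hill equation for IC50.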

MRGPRX2 [2] = biological target: T1, MRGPRX2; assay: MRGPRX2 IP1 HTRF assay; set-up: host or cells: CHO-K1; settings: CHO-K1 cells stably expressing human MRGPRX2; IP1 accumulation, agonist Cortistatin 14 1 μM
MRGPRX2 [3] = biological target: T1, MRGPRX2; assay: MRGPRX2 β-Arrestin assay; set-up: host or cells: PathHunter CHO-K1; settings: PathHunter CHO-K1 MRGPRX2 β-Arrestin cell line; agonist Cortistatin 14 0.25 μM
Summary of the method: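 PathHunter CHO-K1 cells expressing ProLink-tagged MRGPRX2 and enzyme-acceptor-tagged β-arrestin were preincubated with serially diluted compound 1 h at 37 °C, then stimulated with 0.25 μM cortistatin 14 (final) for 90 min. β-arrestin recruitment was read by luminescence; IC50 from 3- or 4-parameter Hill fits normalised to DMSO and reference antagonist controls.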

Compound: NS(=O)(=O)N1CC(CNc2cc(C(F)(F)F)nc3ccc(Cl)cc23)(c2ccc3ccccc3n2)C1 [Example 80, 3-(((6-Chloro-2-(trifluoromethyl)quinolin-4-yl)amino)methyl)-3-(quinolin-2-yl)azetidine-1-sulfonamide]
- IC50 (MRGPRX2 [1]): 0.1 to 100 nM
- IC50 (MRGPRX2 [2]): 100 to 1000 nM
- IC50 (MRGPRX2 [3]): 100 to 1000 nM

Compound: CNC(=O)N1CC(CNc2cc(C(F)(F)F)nc3ccc(Cl)cc23)(n2cccn2)C1 [Example 52, 3-(((6-Chloro-2-(trifluoromethyl)quinolin-4-yl)amino)methyl)-N-methyl-3-(1H-pyrazol-1-yl)azetidine-1-carboxamide]
- IC50 (MRGPRX2 [1]): 0.1 to 100 nM
- IC50 (MRGPRX2 [2]): 0.1 to 100 nM
- IC50 (MRGPRX2 [3]): 0.1 to 100 nM

Compound: CNC(=O)N1CCC(CNc2cc(C(F)(F)F)nc3ccc(Cl)cc23)(c2ccc(F)cn2)C1 (stereo not drawn) [Example 49, 3-(((6-Chloro-2-(trifluoromethyl)quinolin-4-yl)amino)methyl)-3-(5-fluoropyridin-2-yl)-N-methylpyrrolidine-1-carboxamide]
- IC50 (MRGPRX2 [1]): 0.1 to 100 nM
- IC50 (MRGPRX2 [2]): 0.1 to 100 nM
- IC50 (MRGPRX2 [3]): 0.1 to 100 nM

Compound: NS(=O)(=O)N1CC(CNc2cc(C(F)(F)F)nc3ccc(Cl)cc23)(c2cccc(F)c2)C1 [Example 31, 3-(((6-Chloro-2-(trifluoromethyl)quinolin-4-yl)amino)methyl)-3-(3-fluorophenyl)azetidine-1-sulfonamide]
- IC50 (MRGPRX2 [1]): 0.1 to 100 nM
- IC50 (MRGPRX2 [2]): 0.1 to 100 nM
- IC50 (MRGPRX2 [3]): 0.1 to 100 nM

Compound: O=C1CC(CNc2cc(C(F)(F)F)nc3ccc(Cl)cc23)(c2ccccc2)CN1 (stereo not drawn) [Example 8, 4-(((6-Chloro-2-(trifluoromethyl)quinolin-4-yl)amino)methyl)-4-phenylpyrrolidin-2-one]
- IC50 (MRGPRX2 [1]): 0.1 to 100 nM
- IC50 (MRGPRX2 [2]): 0.1 to 100 nM
- IC50 (MRGPRX2 [3]): 0.1 to 100 nM

Compound: Cc1csc(C2(CNc3cc(C(F)(F)F)nc4ccc(Cl)cc34)CN(S(N)(=O)=O)C2)n1 [Example 81, 3-(((6-Chloro-2-(trifluoromethyl)quinolin-4-yl)amino)methyl)-3-(4-methylthiazol-2-yl)azetidine-1-sulfonamide]
- IC50 (MRGPRX2 [1]): 0.1 to 100 nM
- IC50 (MRGPRX2 [2]): 100 to 1000 nM
- IC50 (MRGPRX2 [3]): 0.1 to 100 nM
